Patent publication US20090081194A1, “COMPOSITIONS AND METHODS FOR REDUCING RISK OF DEVELOPMENT, OR SEVERITY, OF INAPPROPRIATE IMMUNE RESPONSE IN EYES” (priority 2007, published 2009)

Tests used:
[1] = target: T1, TLR9 (Homo sapiens, UniProt Q9NR96); settings: Gursel et al. 2003; Stunz et al. 2002; cited from earlier work
T1 sequence (Q9NR96 26-1032): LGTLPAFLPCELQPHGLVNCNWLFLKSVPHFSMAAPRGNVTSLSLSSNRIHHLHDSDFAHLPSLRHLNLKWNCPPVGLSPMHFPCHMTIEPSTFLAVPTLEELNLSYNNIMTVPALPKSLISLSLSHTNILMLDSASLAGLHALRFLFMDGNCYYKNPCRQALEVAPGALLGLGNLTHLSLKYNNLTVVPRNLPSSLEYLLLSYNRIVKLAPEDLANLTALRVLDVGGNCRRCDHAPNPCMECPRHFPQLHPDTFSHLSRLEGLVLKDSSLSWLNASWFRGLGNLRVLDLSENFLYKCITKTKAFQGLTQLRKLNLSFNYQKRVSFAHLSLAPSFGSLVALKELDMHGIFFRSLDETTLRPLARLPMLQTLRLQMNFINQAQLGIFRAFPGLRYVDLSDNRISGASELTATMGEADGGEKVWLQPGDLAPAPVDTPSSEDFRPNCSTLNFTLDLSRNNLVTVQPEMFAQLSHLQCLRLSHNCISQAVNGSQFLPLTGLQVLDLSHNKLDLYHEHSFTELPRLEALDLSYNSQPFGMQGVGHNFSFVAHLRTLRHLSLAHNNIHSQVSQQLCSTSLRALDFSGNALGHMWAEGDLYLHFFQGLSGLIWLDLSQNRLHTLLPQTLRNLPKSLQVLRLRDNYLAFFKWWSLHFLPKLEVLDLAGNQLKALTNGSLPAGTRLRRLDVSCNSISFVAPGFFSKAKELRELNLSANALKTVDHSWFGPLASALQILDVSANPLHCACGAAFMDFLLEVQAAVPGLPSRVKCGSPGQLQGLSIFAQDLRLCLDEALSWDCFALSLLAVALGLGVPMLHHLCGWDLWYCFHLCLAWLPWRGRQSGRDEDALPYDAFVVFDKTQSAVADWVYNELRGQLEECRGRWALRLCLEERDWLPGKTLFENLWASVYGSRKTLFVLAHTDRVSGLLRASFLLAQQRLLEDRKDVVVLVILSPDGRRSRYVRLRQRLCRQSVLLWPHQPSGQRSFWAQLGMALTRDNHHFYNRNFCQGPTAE

[2] = test system: C57BL/6 mouse cornea; assay: Mouse keratitis: neutrophil infiltrate in abraded cornea; type: in vivo; settings: topical on abraded cornea, 24 hours, FIG. 5
Method: In this experiment, 1 μl of test solution containing 20 μg/ml of the synthetic stimulatory ODN 1826, 10 μg/ml of endotoxin-free DNA from E. coli K12, 20 μg/ml of Pam3Cys, or 20 μg/ml LPS, along with a composition of the present invention containing the inhibitory ODN 2088, the control composition containing 20 μg/ml of ODN 1911, or medium only, was applied to a 1 mm^2 abraded area of central C57BL/6 mouse cornea that had been marked by sterile trephine (Miltex, Tuttlingen, Germany) and abraded with an Alger brush II (Alger, PagoVista, Texas). After 24 hours, the corneal infiltrate was determined as the number of neutrophils per corneal section. […] Other inhibitors of TLR2 and TLR4 activation should be effective in suppressing corneal infiltrate induced by Pam3Cys and LPS, respectively.

[3] = test system: mouse peritoneal neutrophils; assay: Cytokine production (ELISA) by activated mouse peritoneal neutrophils; type: cell-based; settings: 15 hours
Method: In one experiment, mouse peritoneal neutrophils were isolated from C57BL/6 mice that had received intraperitoneal injection of 1% casein solution containing 0.5 mM MgCl2 and 0.99 mM CaCl2 16 hours and 3 hours prior to harvesting in Hank's balanced salt solution (“HBSS”) lavage. Collected cells were centrifuged (2000 rpm, 10 min) and washed twice in HBSS, prior to separation of granulocytes by Percol gradient at 31,500 rpm for 20 min. Cells were washed twice and resuspended in Dubelco's modified eagle's medium (“DMEM”) containing 10% fetal calf serum (Invitrogen, Basel Switzerland). Purity of 98% neutrophils was verified by Diff-Quik stain (VWR, Bridgeport, N.J.). Neutrophils (1×10^5/well) were pre-incubated with 100 ng/ml GM-CSF at 37° C. for 1 hour prior to exposure to compositions of the present invention comprising 0.08-10 μg/ml of inhibitory ODN 2088 (InvivoGen, San Diego, Calif.; sequence disclosed above) or a control composition containing 20 μg/ml of the control ODN 1911 (Operon Qiagen, Valencia, Calif.; having a sequence of […]), or the medium only, for 30 minutes prior to activation with 20 μg/ml of stimulatory ODN 1826 (Operon Qiagen, Valencia, Calif.; having a sequence of […]); 20 μg/ml of endotoxin-free DNA from E. coli K12 (InvivoGen, San Diego, Calif.); killed Staphylococcus aureus strain E2061740 (3×10^5 cfu/ml); 100 ng/ml of Pam3Cys (synthetic lipopeptide (S)-(2,3-bis(palmitoyloxy)-(2RS)-propyl)-N-palmitoyl-(R)-Cys-(S)-Ser-(S)-Lys4-OH, EMC Microcollections, Tubingen, Germany); or 200 ng/ml of LPS (ultra pure lipopolysaccharide from E. coli 0111:B4 strain, InvivoGen, San Diego, Calif.). After 15 hours at 37° C., supernates were collected for ELISA assay (R&D Systems, Minneapolis, Minn.) for pro-inflammatory cytokines macrophage inflammatory protein-2 (“MIP-2”), keratinocyte-derived chemokines (“KC”), IL-6, and TNF-α. […] The production of these pro-inflammatory cytokines was not affected when neutrophils activated by Pam3Cys or LPS were treated with a composition comprising the inhibitory ODN 2088. This not surprising in view of the fact that the inhibitory ODN 2088 inhibits the activation of TLR9 while LPS and Pam3Cys activate TLR4 and TLR2, respectively. Other inhibitors of TLR2 and TLR4 activation should be effective in suppressing corneal infiltrate induced by […], respectively.

[4] = test system: C57BL/6 mouse cornea; assay: Corneal epithelium cytokines (ELISA) after stimulatory ODN on abraded mouse cornea; type: in vivo; settings: stimulatory ODN 1826 20 μg/ml with ODN 2088 20 μg/ml, 5 hours; all three cytokines; FIG. 6
Method: In this experiment, 1 μl of test solution containing 20 μg/ml of the synthetic stimulatory ODN 1826, along with a composition of the present invention containing 20 μg/ml of the inhibitory ODN 2088, or a control composition containing 20 μg/ml of the control ODN 1911, or the medium only, was applied to a 1 mm^2 abraded area of central C57BL/6 mouse cornea that had been marked by sterile trephine (Miltex, Tuttlingen, Germany) and abraded with an Alger brush II (Alger, PagoVista, TX). After 5 hours, the corneal epithelium was separated after 20 minutes in 20 mM EDTA at 37° C. and placed into RPMI 1640 medium. Samples were disrupted by sonication for 88 seconds with 40% duty cycle (Vibracell; Sonics and Material, Danbury, Conn.). Cytokines were measured by ELISA assay (R&D Systems, Minneapolis, Minn.) for the pro-inflammatory cytokines MIP-2, KC, and human interferon-inducible protein 10 (“IP-10”).

TCCTGGCGGGGAAGT (chemistry not given here) [ODN 2088]
colocalization of CpG DNA with TLR9 within endosomal vesicles [1]: block the colocalization | corneal infiltrate, number of neutrophils per corneal section ([2]; LPS 20 μg/ml): not effective in suppressing corneal infiltrates | corneal infiltrate, number of neutrophils per corneal section ([2]; Pam3Cys 20 μg/ml): not effective in suppressing corneal infiltrates | corneal infiltrate, number of neutrophils per corneal section ([2]; bacterial DNA (E. coli K12) 10 μg/ml): reduced the number of infiltrating neutrophils | corneal infiltrate, number of neutrophils per corneal section ([2]; stimulatory ODN 1826 20 μg/ml): reduced the number of infiltrating neutrophils | pro-inflammatory cytokine production by neutrophils (MIP-2, KC, IL-6, TNF-α) ([3]; activation with 100 ng/ml Pam3Cys): not affected | pro-inflammatory cytokine production by neutrophils (MIP-2, KC, IL-6, TNF-α) ([3]; activation with 200 ng/ml LPS): not affected | pro-inflammatory cytokine production by neutrophils (MIP-2, KC, IL-6, TNF-α) ([3]; activation with 20 μg/ml endotoxin-free DNA from E. coli K12, ODN 2088 0.08-10 μg/ml, dose dependent, FIGS. 1-4): inhibited pro-inflammatory cytokine production | pro-inflammatory cytokine production by neutrophils (MIP-2, KC, IL-6, TNF-α) ([3]; activation with 20 μg/ml stimulatory ODN 1826, ODN 2088 0.08-10 μg/ml, dose dependent, FIGS. 1-4): inhibited pro-inflammatory cytokine production | pro-inflammatory cytokine production by neutrophils (MIP-2, KC, IL-6, TNF-α) ([3]; activation with killed Staphylococcus aureus (3×10^5 cfu/ml)): nondetectable levels | corneal cytokine response (MIP-2, KC, IP-10) [4]: reduced cytokine response
